# Target: T1, Human BCL-XL protein (N-terminal HiBiT tagged BCL-XL expressed in HT1080 cells) (Homo sapiens, UniProt Q07817)
# T1 construct: expressed in transfected cells; host or cells: HT-1080 (ATCC CCL-121), stably transduced with lentivirus pLV-UBC-N-HiBiT-BCL-XL-PGK-puro and selected with puromycin
# Experiment: HiBiT Based Degradation Assay
# Assay type: cell-based
# Conditions: 24 hours incubation; for DC50: BCL-XL degradation, HT1080 cells expressing N-HiBiT-BCL-XL, normalized with DMSO control, geometric mean for multiple data points, read-out: EC50 (24 h); for Ymin (24 h): bottom of BCL-XL degradation curve (remaining HiBiT-BCL-XL signal vs DMSO control), HT1080 cells
# Text: HiBiT Based Degradation Assay
# Human BCL-XL protein coding open reading frame fused with N-terminal HiBiT coding sequence (N-HiBiT-BCL-XL) was synthesized from Integrated DNA Technologies (IDT). Next, N-HiBiT-BCL-XL sequence was cloned into pLV-UBC-PGK-Puro, a lentivirus plasmid purchased from Vectorbuilder, to generate pLV-UBC-N-HiBiT-BCL-XL-PGK-puro. Lentiviral particles were generated from Lenti-X™ 293T cells (Clontech) by co-transfection of pLV-UBC-N-HiBiT-BCL-XL-PGK-puro plasmids and lentiviral packaging plasmid mix (Cellecta). HT-1080 [HT1080](ATCC CCL-121™) cells were infected with the lentivirus, and HT1080 cells stably integrated with the lentiviral vector were established by incubation with 1 μg/mL puromycin (Thermofisher). HT1080 cells expressing N-terminal HiBiT tagged BCL-XL were dispensed into 384-well plates pre-spotted with compounds at varying concentrations. Three thousand cells were seeded into each well in 40 μL of RPMI 1640 media. After 24 hours of incubation at 37° C. with 5% CO2, 30 μL of the NANO-GLO® HiBiT Lytic Detection System working solution (Promega) was added to each well and incubated at room temperature for 30 min. After incubation, luminescence was read on a PHERAstar FSX Plate Reader (BMG). BCL-XL degradation at each indicated concentration was normalized with DMSO control. The BCL-XL degradation curves were plotted using a four-parameter logistic model. For compounds displaying hook effects, curve fitting was performed using bottom point of hook curves (i.e., the point of Ymin) as bottom plateau to calculate EC50. For compounds with multiple data points, the geometric mean is presented.
# T1 sequence (Q07817 whole entry): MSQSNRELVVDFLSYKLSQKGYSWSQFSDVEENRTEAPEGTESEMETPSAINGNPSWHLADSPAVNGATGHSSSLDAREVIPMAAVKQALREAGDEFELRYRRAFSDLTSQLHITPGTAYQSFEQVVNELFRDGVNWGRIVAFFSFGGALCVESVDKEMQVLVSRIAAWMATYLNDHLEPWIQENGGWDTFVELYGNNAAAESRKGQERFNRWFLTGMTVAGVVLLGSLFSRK
DC50 [µM],Ymin (24 h),Compound
< 0.01,B (30% ≤ Ymin < 50%),"Cc1c(OC2CC3(CCN(CC(=O)Nc4ccc5c(C6CCC(=O)NC6=O)nn(C)c5c4F)CC3)C2)cccc1-c1ccc(N2CCc3cccc(C(=O)Nc4nc5ccccc5s4)c3C2)nc1C(=O)O (stereo not drawn) [Compound 190, 6-(8-(benzo[d]thiazol-2-ylcarbamoyl)-3,4-dihydroisoquinolin-2(1H)-yl)-3-(3-((7-(2-((3-(2,6-dioxopiperidin-3-yl)-7-fluoro-1-methyl-1H-indazol-6-yl)amino)-2-oxoethyl)-7-azaspiro[3.5]nonan-2-yl)oxy)-2-methylphenyl)picolinic acid]"
0.01 to 0.1,B (30% ≤ Ymin < 50%),"C[C@H](CCC1CCN(CC(=O)Nc2ccc3c(C4CCC(=O)NC4=O)nn(C)c3c2)CC1)Oc1ccc(-c2ccc(N3CCc4cccc(C(=O)Nc5nc6ccccc6s5)c4C3)nc2C(=O)O)c(C(F)(F)F)c1 (single isomer, unassigned) [Compound 138b]"
0.01 to 0.1,B (30% ≤ Ymin < 50%),"Cc1c(OCCCC2(O)CCN(CC(=O)Nc3ccc4c(C5CCC(=O)NC5=O)nn(C)c4c3)CC2)cccc1-c1ccc(N2CCc3cccc(C(=O)Nc4nc5ccccc5s4)c3C2)nc1C(=O)O (stereo not drawn) [Compound 108, 6-(8-(benzo[d]thiazol-2-ylcarbamoyl)-3,4-dihydroisoquinolin-2(1H)-yl)-3-(3-(3-(1-(2-((3-(2,6-dioxopiperidin-3-yl)-1-methyl-1H-indazol-6-yl)amino)-2-oxoethyl)-4-hydroxypiperidin-4-yl)propoxy)-2-methylphenyl)picolinic acid]"
0.01 to 0.1,B (30% ≤ Ymin < 50%),"COc1c(NC(=O)CN2CCC3(CC2)CC(Oc2cccc(-c4ccc(N5CCc6cccc(C(=O)Nc7nc8ccccc8s7)c6C5)nc4C(=O)O)c2C)C3)ccc2c(C3CCC(=O)NC3=O)nn(C)c12 (stereo not drawn) [Compound 164, 6-(8-(benzo[d]thiazol-2-ylcarbamoyl)-3,4-dihydroisoquinolin-2(1H)-yl)-3-(3-((7-(2-((3-(2,6-dioxopiperidin-3-yl)-7-methoxy-1-methyl-1H-indazol-6-yl)amino)-2-oxoethyl)-7-azaspiro[3.5]nonan-2-yl)oxy)-2-methylphenyl)picolinic acid]"
< 0.01,A (Ymin < 30%),"Cc1cc(OC2CC3(CCN(CC(=O)Nc4ccc5c(C6CCC(=O)NC6=O)nn(C)c5c4)CC3)C2)ccc1-c1ccc(N2CCc3ccnc(C(=O)Nc4nc5ccccc5s4)c3C2)nc1C(=O)O (stereo not drawn) [Compound 167, 6-[8-(1,3-benzothiazol-2-ylcarbamoyl)-3,4-dihydro-1H-2,7-naphthyridin-2-yl]-3-[4-[[7-[2-[[3-(2,6-dioxo-3-piperidyl)-1-methyl-indazol-6-yl]amino]-2-oxo-ethyl]-7-azaspiro[3.5]nonan-2-yl]oxy]-2-methyl-phenyl]pyridine-2-carboxylic acid]"
0.01 to 0.1,B (30% ≤ Ymin < 50%),"Cc1c(OC[C@@H]2C[C@@H]2C2CCN(CC(=O)Nc3ccc4c(C5CCC(=O)NC5=O)nn(C)c4c3)CC2)cccc1-c1ccc(N2CCc3cccc(C(=O)Nc4nc5ccccc5s4)c3C2)nc1C(=O)O (single isomer, unassigned) [Compound 1001d]"
0.01 to 0.1,B (30% ≤ Ymin < 50%),"Cn1nc(C2CCC(=O)NC2=O)c2ccc(NC(=O)CN3CCC4(CC3)CC(COc3cccc(-c5ccc(N6CCc7cccc(C(=O)Nc8nc9ccccc9s8)c7C6)nc5C(=O)O)c3C(F)(F)F)C4)cc21 (stereo not drawn) [Compound 132, 6-(8-(benzo[d]thiazol-2-ylcarbamoyl)-3,4-dihydroisoquinolin-2(1H)-yl)-3-(3-((7-(2-((3-(2,6-dioxopiperidin-3-yl)-1-methyl-1H-indazol-6-yl)amino)-2-oxoethyl)-7-azaspiro[3.5]nonan-2-yl)methoxy)-2-(trifluoromethyl)phenyl)picolinic acid]"
< 0.01,A (Ymin < 30%),"Cc1cc(OCC2CC3(CCN(CC(=O)Nc4ccc5c(C6CCC(=O)NC6=O)nn(C)c5c4)CC3)C2)ccc1-c1ccc(N2CCc3ccnc(C(=O)Nc4nc5ccccc5s4)c3C2)nc1C(=O)O (stereo not drawn) [Compound 135, 6-[8-(1,3-benzothiazol-2-ylcarbamoyl)-3,4-dihydro-1H-2,7-naphthyridin-2-yl]-3-[4-[[7-[2-[[3-(2,6-dioxo-3-piperidyl)-1-methyl-indazol-6-yl]amino]-2-oxo-ethyl]-7-azaspiro[3.5]nonan-2-yl]methoxy]-2-methyl-phenyl]pyridine-2-carboxylic acid]"
< 0.01,B (30% ≤ Ymin < 50%),Cc1c(OCCN2CCCC23CCN(CC(=O)Nc2ccc4c(C5CCC(=O)NC5=O)nn(C)c4c2)CC3)cccc1-c1ccc(N2CCc3cccc(C(=O)Nc4nc5ccccc5s4)c3C2)nc1C(=O)O (stereo not drawn) [Compound 177]
0.01 to 0.1,B (30% ≤ Ymin < 50%),"Cc1cc(O[C@H](C)CCC2CCN(CC(=O)Nc3ccc4c(C5CCC(=O)NC5=O)nn(C)c4c3)CC2)ccc1-c1ccc(N2CCc3ccnc(C(=O)Nc4nc5ccccc5s4)c3C2)nc1C(=O)O (single isomer, unassigned) [Compound 133a]"
< 0.01,A (Ymin < 30%),"Cc1cc(OCCCC2CCN(CC(=O)Nc3ccc4c(C5CCC(=O)NC5=O)nn(C)c4c3)CC2)ccc1-c1ccc(N2CCc3ccnc(C(=O)Nc4nc5ccccc5s4)c3C2)nc1C(=O)O (stereo not drawn) [Compound 141, 6-[8-(1,3-benzothiazol-2-ylcarbamoyl)-3,4-dihydro-1H-2,7-naphthyridin-2-yl]-3-[4-[3-[1-[2-[[3-(2,6-dioxo-3-piperidyl)-1-methyl-indazol-6-yl]amino]-2-oxo-ethyl]-4-piperidyl]propoxy]-2-methyl-phenyl]pyridine-2-carboxylic acid]"
< 0.01,B (30% ≤ Ymin < 50%),"Cc1c(OCCCC2CCN(CCNc3ccc4c(C5CCC(=O)NC5=O)nn(C)c4c3)CC2)cccc1-c1ccc(N2CCc3cccc(C(=O)Nc4nc5ccccc5s4)c3C2)nc1C(=O)O (stereo not drawn) [Compound 150, 6-[8-(1,3-benzothiazol-2-ylcarbamoyl)-3,4-dihydro-1H-isoquinolin-2-yl]-3-[3-[3-[1-[2-[[3-(2,6-dioxo-3-piperidyl)-1-methyl-indazol-6-yl]amino]ethyl]-4-piperidyl]propoxy]-2-methyl-phenyl]pyridine-2-carboxylic acid]"
0.01 to 0.1,B (30% ≤ Ymin < 50%),COc1c(NC(=O)CN2CC[C@@H](CCCOc3cccc(-c4ccc(N5CCc6cccc(C(=O)Nc7nc8ccccc8s7)c6C5)nc4C(=O)O)c3C)C[C@H]2C)ccc2c(C3CCC(=O)NC3=O)nn(C)c12 (stereo partly drawn) [Compound 208d]
0.01 to 0.1,B (30% ≤ Ymin < 50%),"COc1c(NC(=O)CN2CCC3(CC2)CC(COc2cccc(-c4ccc(N5CCc6ccnc(C(=O)Nc7nc8ccccc8s7)c6C5)nc4C(=O)O)c2C(F)(F)F)C3)ccc2c(C3CCC(=O)NC3=O)nn(C)c12 (stereo not drawn) [Compound 162, 6-[8-(1,3-benzothiazol-2-ylcarbamoyl)-3,4-dihydro-1H-2,7-naphthyridin-2-yl]-3-[3-[[7-[2-[[3-(2,6-dioxo-3-piperidyl)-7-methoxy-1-methyl-indazol-6-yl]amino]-2-oxo-ethyl]-7-azaspiro[3.5]nonan-2-yl]methoxy]-2-(trifluoromethyl)phenyl]pyridine-2-carboxylic acid]"
0.01 to 0.1,B (30% ≤ Ymin < 50%),Cn1nc(C2CCC(=O)NC2=O)c2ccc(NC(=O)CN3CCC(CCCOc4cccc(-c5ccc(N6CCc7cccc(C(=O)Nc8nc9ccccc9s8)c7C6)nc5C(=O)O)c4F)CC3)cc21 (stereo not drawn) [Compound 198]

# Source: patent publication US20260216170A1, “TETRAHYDROISOQUINOLINE HETEROBIFUNCTIONAL BCL-XL DEGRADERS” (Treeline Biosciences, Inc., priority 2023, published 2026)
